One series concerns mice. Put plainly: Reduction of toxic side-effect of 5-FU by OC-5186 (Experiment 2). The format is in vivo. As to the method: (§1) In the Experiment 2, the amount of the oligomer was cut down to 1 mg/kg/day to see whether we could still observe anti-cancer activity.
The subject of the next series is solid tumor (EAT cells). Briefly: Anti-cancer activity, solid tumor model (EAT cells inoculated subcutaneously). The series is classed as in vivo, mice. The note with it: 5-FU 20 mg/kg/day. Here is the method:
(§2) We used two mice models (Tomomatsu, Morita, Nagai, Shiwaku, Ichiki and Yonoki: Acta Med. Univ. Kagoshima. 17:99, 1975), i.e., (a) Ehrlich's ascites tumor (EAT) model and (b) a solid tumor model in which EAT cells were innoculated subcutaneously. In (a), 10^7 tumor cells were injected I.P. in a mouse with the body weight of 20 g. In (b), the same amount of tumor cells were injected subcutaneously in a mouse of similar weight. After 21 days, we measured several parameters: (i) the change of body weight; (ii) average time to their death, from which we measure extension of life span, and (iii) survival rate.
(§3) In the solid tumor model, we measured the extension of the life span and the survival rate. […] In the Experiment 1, from day 4 until day 13 (for ten days), anti-cancer drugs were administered. […] In the combination therapy, both drugs were administered simultaneously at their respective doses. […] With the 5-FU, they died in an average of 20.3 days. […] In the tumor model, similar tendency was observed.
as §1

The test system of series [1] is Ehrlich's ascites tumor (EAT). Briefly: Anti-cancer activity, Ehrlich's ascites tumor (EAT) model. The conditions noted are these: 5-FU 20 mg/kg/day. The format is in vivo, mice. Here is the method: as §2
In the ascites tumor model, an increase of body weight is related to the increase in ascites. When the animal dies, we collect the ascites fluid and measure the number of tumor cells found in the ascites.
as §3, §1

The subject of series [2] is FCR-3 strain P. falciparum. Put plainly: Growth inhibition of P. falciparum in in vitro culture. The format is cell-based. The note with it: 50 ug/ml, forty-eight hours. Here is the method:
The FCR-3 strain P. falciparum was used. Blood-stage parasites were cultured in RPMI-1640 (GIBCO Laboratories, Chagrin Falls, Ohio) in 96 well flat bottomed plates (Costar; Cambridge, Mass.) using the candle jar method described by Jensen and Trager (J. Parasitology 63:883,1977) and modified by Grun and Weidanz (J. Parasitology 73:384, 1987). Parasitemia was estimated on GIEMSA stained films of cultures. For drug administration, desired amounts of chemicals were added to an individual wells of 96 well plates. Forty-eight hours later, parasitemia was estimated and the degree of growth inhibition was determined.

Another series has as its system brain ischemia. Put plainly: Survival rate after global brain ischemia. The series is classed as in vivo, Sprague-Dawley rats. The conditions noted are these: 9 mg/kg; OC-5186 injected I.P. thirty minutes prior to ischemia; control 8 out of 8 died within 2 days. Here is the method:
Adult, male Sprague-Dawley rats, weighing 300 to 350 grams, were used to prepare global ischemia. Anesthesia was induced and maintained with forane in 70% nitrous oxide-30% oxygen. After trachea was intubated, anesthesia was maintained using a ventilator. Both common carotid arteries were exposed and occluded by microaneurysmal clips. Then 12 to 14 ml of blood was withdrawn from the tail vein to bring the blood pressure to 30 mm Hg, which caused global ischemia. After twenty minutes of ischemia, blood was reinfused, clips were removed to induce recirculation. After twenty minutes of recirculation, the rat was decapitated, the brain was removed in ice-cold saline and then homogenized for TBAR measurement and spin trap measurement. For the measurement of survival rate, the wound was sutured and the animal recovered. The animal was returned to its cage. They were then observed for the survival rate. […] In this experiment, the brain was homogenized in the presence of 50 mM tert-butyl-(alpha)-phenylnitrone and the homogenate was introduced to electron spin resonance spectrophotometer.
In control experiment, where no drug was introduced, 8 out of 8 animals died within 2 days. […] Ascorbic acid (9 mg/kg) had no effect.

A further series relates to sickle red blood cells. Briefly: Formation of irreversibly sickled cells upon sickling-unsickling cycling in vitro. The series is classed as cell-based. The note with it: 10 ug/ml. An excerpt: The inventor previously developed the method to produce irreversibly sickled cells (ISC, which are irreversibly denatured sickle cells) by exposing sickle red blood cells to a repeated sickling-unsickling cycling in vitro. He used this system to determine the efficacy of drugs in protecting cell membranes (Ohnishi, Br. J. Haematol. 55:665-671, 1983; Ohnishi et al. Biochim. Biophys. Acta 886:119-129, 1986). […] These heavy cells were collected, the amount measured, and the percentage of production calculated.

The nature of series [3]: Superoxide scavenging activity, adenochrome method. The format is biochemical. The note with it: 50 ug/ml each; absorbance at 480 nm (FIG. 1). An excerpt:
From the change of the slope, we can estimate the activity of scavenging action.

The subject of series [4] is lipid peroxidation (TBAR) in rat head/brain homogenate. Put plainly: Inhibition of TBAR production (lipid peroxidation) in ischemic rat brain homogenate, drug added in vitro. The series is classed as biochemical. The conditions noted are these: added in vitro before exposure to air (FIG. 3, FIG. 4). The text has this:
(A) When cell membranes are exposed to ischemic or hypoxic insult, lipid peroxidation takes place. The degree of peroxidation can be measured by the production of thiobarbiturate reactive substances (TBAR). We have developed a simple assay method; we decapitate the rat and keep the head under a hypoxic condition for thirty minutes at 37 degrees and then homogenize it, then expose the homogenate to air for sixty minutes and measure the production of TBAR.

Series [5] can be described thus: Anti-oxidant activity and protection from ischemic trauma (summary statement).

The text below walks through data of patent US5114972A, “Synthesis and uses of new ascorbic acid derivatives which have anti-oxidant and anti-cancer activities” (priority 1990, dated 1992).

`O=c1[nH]cc(F)c(=O)[nH]1` [5-FU, 5-fluorouracil]: in the series on mice (administered for 23 days), the “survival of chemotherapy / toxicity” value is “all animals die if it is administered for 23 days”. In addition, the “tolerated duration of 5-FU administration without OC-5186” value in the series on mice (without OC-5186) is listed as at most 10 days. The “Solid tumor weight (on 21 days)” value with solid tumor (EAT cells) (Experiment 1, day 4 to day 13, OC-5186 10 mg/kg/day, combination at respective doses, control 1.2 g) is on record as 0.70 g. Moreover, in the series with solid tumor (EAT cells) (Experiment 2, 23 days, OC-5186 1 mg/kg/day, combination, control 25%), the “21 day surv., solid tumor model” value is recorded as 40%. Moreover, in the series with solid tumor (EAT cells) (Experiment 2, 23 days, OC-5186 1 mg/kg/day, combination, control 23.2 days), the “Av. Surv., solid tumor model” value is recorded as 26 days. In addition, the “21 day survival, EAT model” value came out at 40% in [1] (Experiment 1, day 4 to day 13, OC-5186 10 mg/kg/day, combination at respective doses, control 25%) and 40% in series [1] (Experiment 2, 23 days, OC-5186 1 mg/kg/day, combination, control 0%). Also, the “Average survival, EAT model” value in series [1] (Experiment 1, day 4 to day 13, OC-5186 10 mg/kg/day, combination at respective doses, control 17.0 days) is recorded as 20.3 days; in series [1] (Experiment 2, 23 days, OC-5186 1 mg/kg/day, combination, control 15.3 days), 20.3 days.

`O=C1O[C@H]([C@@H](O)CO)C(O)=C1O` [Ascorbic acid]: in series [2], the “inhibition of growth of P. falciparum (in words)” value is “did not inhibit the growth”. Also, in the series with brain ischemia, the survival after ischemia result is listed as “had no effect”. The “inhibition of formation of irreversibly denatured cells (in words)” value in the series with sickle red blood cells is “did not inhibit the formation”.

On to `CCCCC[C@H](O)/C=C/C1=C(C/C=C\CCCC(=O)OC[C@H](O)[C@H]2OC(=O)C(O)=C2O)C(=O)CC1` [OC-5181], for which the “superoxide-induced adenochrome formation (slope of the curve)” value in series [3] was “the slope of the curve decreased”. Besides, in [4], the “inhibition of TBAR production / antioxidant activity in vitro” value is reported as “antioxidant activity comparable to free acid type prostaglandin oligomers, OC-2186”. The anti-oxidant activity result in [5] is given as “strong anti-oxidant activity”.
